Where no end group is shown, it is not given here.
Assays:
Sarcina lutea ATCC 9342 = experiment: Antibacterial activity assay (microspectrophotometry); assay type: cell-based; details: S lutea; 24 hours of incubation at 28° C.
[1] = test system: Escherichia coli strain HB101; experiment: as above; assay type: cell-based; details: E coli; for IC50 (antibacterial activity): Table 4, highest test concentration 500 μg/ml; for IC50 (activity on bacteria): Table 5
[2] = test system: Bacillus megaterium ATCC 13632; experiment: as above; assay type: cell-based; details: B megaterium; 24 hours of incubation at 28° C.
[3] = Chitin-binding activity (chitin micro-column, SDS-PAGE of fractions); details: 50 μg on chitin micro-column; washed at pH 7, desorbed with 100 mM acetic acid (pH 2.8)
B cinerea = experiment: Effect of ions on antifungal activity (synthetic growth medium); assay type: cell-based, Botrytis cinerea; details: for increase of IC50 values by CaCl2 at 1 mM: reference medium + 1 mM CaCl2; for drop in specific activity at 5 mM CaCl2: reference medium + 5 mM CaCl2; for effect of KCl at 10 mM on the dose-response curves: reference medium + 10 mM KCl; for increase of IC50 values by KCl at 50 mM: reference medium + 50 mM KCl; for IC50 in reference medium: synthetic growth medium, 2.5 mM monovalent and 0.1 mM divalent cations
[4] = test system: Erwinia carotovora strain 3912; experiment: Antibacterial activity assay (microspectrophotometry); assay type: cell-based; details: E carotovora; highest test concentration 500 μg/ml
Fusarium culmorum spores [5] = assay type: cell-based; details: F culmorum spores; protein 2-4 fold below the IC50 value; light microscope
From the text: During the course of screening many different plant species it has become evident that the protein class of the invention is fairly common in plant seeds. […] This is particularly evident when using Fusarium culmorum. The nature of the inhibition may also be characterized by the fact that it is very sensitive to the concentration of cations used in the assay.
This is readily visualised when Fusarium culmorum spores are used in the assay and at concentrations of the proteins which are 2-4 fold below the IC50 value.

Phytophthora infestans = assay type: cell-based
[6] = test system: Cercospora beticola strain K897; assay type: cell-based
[7] = test system: Ascochyta pisi MUCL 30164; assay type: cell-based
[8] = test system: Verticillium dahliae MUCL 19210; assay type: cell-based
[9] = test system: Botrytis cinerea MUCL 30158; assay type: cell-based
[10] = test system: Alternaria brassicola MUCL 20297; assay type: cell-based
[11] = test system: Colletotrichum lindemuthianum MUCL 9577; assay type: cell-based
Fusarium culmorum spores [12] = assay type: physicochemical; details: for antifungal activity after heat treatment at up to 80° C.: 10 minutes, F culmorum assay; for antifungal activity after reduction of disulphide bonds: reduction by DTE / dithiothreitol
Method: Tests for antifungal activity were performed with 20 μl samples diluted five-fold with growth medium containing Fusarium culmorum spores, according to the assay method given in Example 1. Untreated control samples consisted of the test proteins at 500 μg/ml in 10 mM sodium phosphat buffer (pH 7). For digestions, different proteases were added at 100 μg/ml and incubated at 37° C. for 16 hours. Heat stability tests were performed by heating aliquots of the test proteins for 10 minutes at different temperatures up to 100° C. pH stability was tested by incubation of test proteins for 1 hour in either 20 mM glycine-HCl (pH 2) or glycine-NaOH (pH 11) and subsequent dialysis for 16 hours against 10 mM sodium phosphate buffer (pH 7) using benzoylated cellulose tubing. Reduction of dishulphide bridges was done by addition of DTE at 30 mM and Tris-HCl (pH 8.6) at 300 mM. The reagents were removed by reversed-phase chromatography. For digestions, different proteases were added at 200 μg/ml and incubated at 37° C. for 3 hours.

[13] = test system: Cladosporium sphaerospermum strain KO791; experiment: Antifungal activity assay (growth inhibition, microspectrophotometry); assay type: cell-based; details: C sphaerospermum; medium B (medium A + 1 mM CaCl2, 50 mM KCl); 48 h
[14] = test system: Alternaria longipes strain CBS 620.83; experiment: as above; assay type: cell-based; details: A longipes; medium B (medium A + 1 mM CaCl2, 50 mM KCl); 48 h
plant pathogenic fungi = assay type: cell-based

Substance	IC50 (antibacterial activity) (Sarcina lutea ATCC 9342) [µg/mL]	IC50 (antibacterial activity) [1]	affinity toward chitin [3]	increase of IC50 values by CaCl2 at 1 mM (B cinerea)	drop in specific activity at 5 mM CaCl2 (B cinerea)	effect of KCl at 10 mM on the dose-response curves (B cinerea)	increase of IC50 values by KCl at 50 mM (B cinerea)	IC50 in reference medium (B cinerea) [µg/mL]	IC50 (antibacterial activity) [4]	morphological change of partially inhibited spores (Fusarium culmorum spores [5])	antifungal activity after heat treatment at up to 80° C. (Fusarium culmorum spores [12])	antifungal activity after reduction of disulphide bonds (Fusarium culmorum spores [12])	IC50 (activity on bacteria) [1] [µg/mL]	antifungal activity in high salt (medium B) (plant pathogenic fungi)	further results
Ac-AMP1: antimicrobial protein from Amaranthus caudatus seeds, 29 residues, dimer of 3 kDa subunits (SEQ ID NO:5) (VGECVRGRCPSGMCCSQFGYCGKGPKYCG; cysteine pairing not given here; also: dimer of subunits)	250	no inhibition	exhibit affinity toward chitin	five to six-fold	more than 50 fold	did not significantly affect	about three-fold	2.2	no inhibition	severe branching of the emerging hyphal tips					IC50 (antibacterial activity) [2]: 40 µg/mL; IC50 (concentration required for 50% growth inhibition) (Phytophthora infestans): 12
Ac-AMP2: antimicrobial protein from Amaranthus caudatus seeds, 30 residues, Ac-AMP1 plus carboxyl-terminal arginine (SEQ ID NO:6) (VGECVRGRCPSGMCCSQFGYCGKGPKYCGR)	40	no inhibition	exhibit affinity toward chitin	five to six-fold	more than 50 fold	did not significantly affect	about three-fold	1.6	no inhibition						IC50 (concentration required for 50% growth inhibition) [6]: 0.8; IC50 (concentration required for 50% growth inhibition) [7]: 8; IC50 (concentration required for 50% growth inhibition) [8]: 5; IC50 (concentration required for 50% growth inhibition) [9]: 8; IC50 (concentration required for 50% growth inhibition) [10]: 4; IC50 (concentration required for 50% growth inhibition) [11]: 8
Bm-AMP1: antimicrobial protein purified from seeds of Briza maxima; may be a mixture of peptides varying at positions 9 and 23 (SEQ ID NO:16)											resistant	completely abolished	> 800	essentially abolished	IC50 Medium B [13]: > 500 µg/mL; IC50 Medium B [14]: > 500 µg/mL; number of fungi with IC50 value below 10 μg/ml (plant pathogenic fungi): six of the eight
Ca-AMP1: antimicrobial protein purified from seeds of Capsicum annuum (SEQ ID NO:15) (QEQCGNQAGGRACANRLCCSQYGYCGSTRAYCGVGCQSNCGR)			exhibits affinity to chitin							severe branching of the emerging hyphal tips	resistant	completely abolished	> 800	essentially abolished	antifungal activity after treatment with chymotrypsin (Fusarium culmorum spores [12]; chymotrypsin): no affect on activity; reduction of antifungal activity after treatment with pronase E (Fusarium culmorum spores [12]; pronase E): at least 10 fold; reduction of antifungal activity after treatment with proteinase K (Fusarium culmorum spores [12]; proteinase K): at least 10 fold; reduction of antifungal activity after treatment with trypsin (Fusarium culmorum spores [12]; trypsin): 2 fold; number of fungi with IC50 value below 50 μg/ml (plant pathogenic fungi): 12 of the 18

Reference: US5597801A, “Biocidal proteins” (priority 1991, dated 1997)
